Laboratory results taken from patent US20150174193A1, “AGENTS FOR TREATING CYSTIC FIBROSIS” (INSERM, priority 2012, published 2015).
Entries after “also recorded” stand apart in the source; their conditions may differ.

T1: HNE (Homo sapiens, UniProt P08246)
T1 construct: Aliquots of sputum homogenates containing peptidases in the 10 nanomolar range; from tissue; host or cells: sputum of cystic fibrosis patients (crude homogenate in PBS)
T1 sequence (P08246 30-247 limits assumed): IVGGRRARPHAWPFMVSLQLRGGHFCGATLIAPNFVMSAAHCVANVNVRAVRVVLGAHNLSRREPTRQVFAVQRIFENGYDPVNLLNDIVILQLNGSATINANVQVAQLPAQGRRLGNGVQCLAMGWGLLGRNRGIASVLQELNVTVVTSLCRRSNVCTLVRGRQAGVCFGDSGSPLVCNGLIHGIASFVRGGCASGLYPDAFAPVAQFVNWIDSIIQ

T2: Pr3 (Homo sapiens, UniProt P24158)
T2 construct: Aliquots of sputum homogenates containing peptidases in the 10 nanomolar range; from tissue; host or cells: sputum of cystic fibrosis patients (crude homogenate in PBS)
T2 sequence (P24158 28-248 limits assumed): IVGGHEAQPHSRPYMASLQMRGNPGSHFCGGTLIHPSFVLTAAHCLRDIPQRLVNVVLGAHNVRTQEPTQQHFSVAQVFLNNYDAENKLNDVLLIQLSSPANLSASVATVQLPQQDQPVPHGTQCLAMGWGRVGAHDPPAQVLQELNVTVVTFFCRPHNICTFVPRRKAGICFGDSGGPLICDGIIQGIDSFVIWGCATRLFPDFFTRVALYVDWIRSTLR

T3: CG (Homo sapiens, UniProt P08311)
T3 construct: Aliquots of sputum homogenates containing peptidases in the 10 nanomolar range; from tissue; host or cells: sputum of cystic fibrosis patients (crude homogenate in PBS)
T3 sequence (P08311 21-243 limits assumed): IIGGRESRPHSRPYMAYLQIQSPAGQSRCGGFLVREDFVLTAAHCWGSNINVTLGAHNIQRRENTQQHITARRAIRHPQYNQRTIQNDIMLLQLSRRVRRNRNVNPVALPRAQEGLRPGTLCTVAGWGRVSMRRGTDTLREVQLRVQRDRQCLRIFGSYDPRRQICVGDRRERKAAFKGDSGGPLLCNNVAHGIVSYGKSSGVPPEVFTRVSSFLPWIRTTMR


Legend:
[1] = test system: neutrophil serine proteases (HNE, Pr3 and CG); test: Proteases activities and inhibition in CF sputum, overall comparison of treatments; assay type: biochemical, human; settings: compared with pLK of higher MW (40,000-50,000 Da)
Method: (§1) Sputum processing-CF sputum was collected into 50 ml Falcon® tubes by physiotherapy and processed immediately. Sputum was diluted with 3 volumes of PBS per gram and homogenized to obtain a crude homogenate that was kept on ice. An aliquot of each homogenate was incubated for 2 h in low-binding microtubes with 400 μg/ml DNase or with 1.5 mg/ml of poly-L-Lysine (pLK) or PEGylated pLK (PEG-g-pLK) under gentle stirring at room temperature, then layered on a glass slide for cell counting by trypan blue exclusion and visual aspect under the optical microscope. Different sizes of pLK were tested (pLK, HBr of either 500-2,000 Da, 1000-5,000 Da, 4,000-15,000 Da and 40,000-50,000 Da molecular weight). PEG-g-pLK was pLK of 40,000-50,000 Da molecular weight grafted with one mPEG molecule of 5,000 Da.
Proteases activities were measured as described in (26) with the specific FRET (fluorescence resonance energy transfer) substrates of HNE, Pr3 and CG: Abz-APEEIMRRQ-YNO2, Abz-VADnVADQ-EDDnp and Abz-TPFSGQ-YNO2 respectively (λex=320 nm and λem=420 nm). The concentrations of active proteases in biological samples were determined by comparing the rates of hydrolysis of their specific substrates with those of commercial titrated proteases under the same experimental conditions. […]

control mice = assay type: in vivo, mouse
Text: The objective of the study was to identify the nature and the dose of polycations to be aerosolized safely in control mice.
In vivo assessment of polycations toxicity has been done by cytologic analysis of bronchoalveolar lavage fluids (BALFs), quantification of proinflammatory cytokines (IL6 and KC) and lung anatomopathology.
Aerosol administration of different doses of pLK was done using a Microsprayer®. Mice were killed at day 2 and day 5 and bronchoalveolar lavage fluids (BALF) were obtained with instillation of 5×0.5 mL of sterile PBS into the lungs. Lungs were perfused with 4% formaldehyde for histological studies. Cells were collected after centrifugation of BALFs, suspended in PBS, and analyzed by flow cytometry. The supernatant was used for cytokine quantification using commercially available ELISA kits.

Beas-2B cells = test: In vitro cellular toxicity in Beas-2B cell cultures; assay type: cell-based; settings: in vitro cultures of Beas-2B cells
HNE = target: T1, HNE; test: HNE activity in whole CF sputa and its inhibition by exogenous inhibitors; assay type: biochemical; settings: after treatment of whole CF sputum
Method: (§2) Proteases activities were measured as described in (26) with the specific FRET (fluorescence resonance energy transfer) substrates of HNE, Pr3 and CG: Abz-APEEIMRRQ-YNO2, Abz-VADnVADQ-EDDnp and Abz-TPFSGQ-YNO2 respectively (λex=320 nm and λem=420 nm). The concentrations of active proteases in biological samples were determined by comparing the rates of hydrolysis of their specific substrates with those of commercial titrated proteases under the same experimental conditions. HNE and Pr3 were titrated as described in (27) and CG was titrated with HNE-titrated recombinant human secretory leukocyte protease inhibitor.
(§3) Aliquots of sputum homogenates containing peptidases in the 10 nanomolar range, were incubated for 30 min at room temperature with increasing amounts of inhibitors up to a (I)/(E) molar ratio of about 40. The low Mr recombinant inhibitor EPI-hNE4 or α1-proteinase inhibitor (α1-Pi) were used to inhibit HNE, while α1-antichymotrypsin (ACT) was used to inhibit CG; Pr3 was inhibited with α1-Pi after samples had been incubated with a 1000-fold molar excess of EPI-hNE4 to avoid the α1-Pi interacting with HNE (8).

CF sputum = CF sputum homogenate treatment: visual aspect and cell counting; set-up: species or system human; settings: for morphological aspect of the sputum after treatment: CF sputum homogenate, 2 h, 400 μg/ml DNase or 1.5 mg/ml pLK
Method: as §1
The increased viscosity of mucus in the CF lung leads to lung obstruction and subsequent decrease in lung function. Because DNA is a major component of CF lung secretions that contributes to their viscosity, rhDNase has been used for long by CF patients as a liquefying expectorant (28). A possible other mean to fluidize lung secretions could be through the condensation of extracellular DNA by positively charged polymers. We checked this hypothesis using poly-L-lysine (pLK) and comparing the rheological properties of CF sputa before and after treatment by pLK. Then we compared the results with those obtained using DNase in the same conditions.

extracellular DNA = test: Quantification of extracellular DNA in CF sputum; set-up: species or system human; settings: for amount of extracellular DNA: CF sputum after treatment, EvaGreen
Method: as §1
Extracellular DNA is quantified with the non-cell-permeant fluorochrome EvaGreen™ dsDNA reagent (λex=488 nm and λem=520 nm).

Pr3 = target: T2, Pr3; test: Pr3 activity in whole CF sputa and its inhibition by α1-Pi; assay type: biochemical; settings: after treatment of whole CF sputum
Method: as §2, §3

CG = target: T3, CG; test: CG activity in whole CF sputa and its inhibition by ACT; assay type: biochemical; settings: after treatment of whole CF sputum
Method: as §2, §3

[2] = test system: P. aeruginosa (strain PAO1); test: Antimicrobial test and scanning electron microscopy, P. aeruginosa; assay type: cell-based, Pseudomonas aeruginosa; settings: for bactericidal effect (CFU): 6×10^6 bacteria, 3 h, 150 μl PBS, 110 μg DNase or 2 μg pLK
Method: (§4) The bacterial count was determined by the measure of OD600nm.
(§5) 6×10^6 bacteria were incubated in low-binding 96-wells microplates 3 h in 150 μl PBS containing 110 μg of DNase or 2 μg of pLK (MW 40,000-50,000 Da). Aliquots of the media were then collected and serial dilutions in PBS were laid on agar plates. CFUs were numbered after incubation at 37° C. Extracellular DNA in the remaining media was quantified as previously described as a marker of bacterial wall permeability.
(§6) 6×10^6 bacteria were settled on polylysine-coated glass slides and treated (or not) with DNase or pLK (pLK of 40,000-50,000 Da). They were then fixed with 1% (v/v) glutaraldehyde and 4% (v/v) paraformaldehyde in 0.1 M PBS, pH 7.4, post-fixed in 2% (v/v) osmium tetroxide, dehydrated in a graded acetone series, dried to the critical point using carbon dioxide, and sputter coated with platinum.

[3] = test system: S. aureus (strain CIP 103811); test: Antimicrobial test and scanning electron microscopy, S. aureus; assay type: cell-based, Staphylococcus aureus; settings: for bactericidal effect (CFU): 6×10^6 bacteria, 3 h, 150 μl PBS, 110 μg DNase or 2 μg pLK
Method: as §4, §5, §6

[4] = aerosol 2.4 mg/kg (66 μg in 50 μL, about 130 μM), Mann-Whitney test

Molecule | elastase activity in whole sputum (HNE) | inhibition of elastase activity by elastase inhibitors (α1-Pi) (HNE) | morphological aspect of the sputum after treatment (CF sputum) | amount of extracellular DNA (extracellular DNA) | activity of PR3 (Pr3) | inhibition of PR3 by α1-Pi (Pr3) | CG inhibition by ACT (CG) | bactericidal effect (CFU) [2] | morphology of the bacteria (scanning electron microscopy) ([2]; P. aeruginosa) | bactericidal effect (CFU) [3] | morphology of the bacteria (scanning electron microscopy) ([3]; S. aureus) | also measured
poly-L-lysine [pLK 500-2,000 Da] | – | – | – | – | – | – | – | – | – | – | – | efficiency of pLK of different sizes [1]: far less efficient
poly-L-lysine [pLK (4-15 kDa)] | – | – | – | – | – | – | – | – | – | – | – | BALF cellularity, treated vs control mice (control mice; [4]): no significant differences; cytokines quantification (IL6 and KC) in BALF, treated vs control mice (control mice; [4]): no significant differences; broncho-interstitial inflammation (histological study) (control mice; aerosol 2.4 mg/kg, day 2, both in treated and in control groups): minimal broncho-interstitial inflammation; lung lesion (histological study) (control mice; aerosol 2.4 mg/kg, day 2 and day 5): no lung lesion; cellular toxicity (Beas-2B cells): can be observed; in vitro toxicity threshold (Beas-2B cells): 5 µM; efficiency of pLK of different sizes ([1]; listed as pLK 4,000-15,000 Da): same results as those with higher MW
poly-L-lysine [pLK] | dramatic increase; also recorded: increase of elastase activity | stoichiometrically inhibited | fractionation of the sputum in dense aggregates and a very fluid phase | important decrease | Neither pLK nor DNase treatments significantly affected | Neither pLK nor DNase treatments significantly affected | significantly improved | significant bactericidal effect | significant modification of the morphology; also recorded: spiculated surface | significant bactericidal effect | less marked | apparent cell count in sputum homogenate (CF sputum; trypan blue exclusion, neutrophils found in aggregates): apparent decrease; DNA degradation in treated sputum (extracellular DNA; extracellular content restored after addition of dextran sulfate): not degraded; bacterial wall permeabilization (extracellular DNA, non-cell permeant fluorophore) ([2]; P. aeruginosa): disruption of the bacterial wall; bacterial wall permeabilization (extracellular DNA, non-cell permeant fluorophore) ([3]; S. aureus): no wall permeabilization
DNase: DNase, most widely used mucoactive agent for CF patients; comparator (protein, UniProt P24855 23-282, looked up) Deoxyribonuclease-1: LKIAAFNIQTFGETKMSNATLVSYIVQILSRYDIALVQEVRDSHLTAVGKLLDNLNQDAPDTYHYVVSEPLGRNSYKERYLFVYRPDQVSAVDSYYYDDGCEPCGNDTFNREPAIVRFFSRFTEVREFAIVPLHAAPGDAVAEIDALYDVYLDVQEKWGLEDVMLMGDFNAGCSYVRPSQWSSIRLWTSPTFQWLIPDSADTTATPTHCAYDRIVVAGMLLRGAVVPDSALPFNFQAAYGLSDQLAQAISDHYPVEVMLK | dramatic increase; also recorded: increase of elastase activity | completely and stoichiometrically inhibited | no morphological change | important decrease | Neither pLK nor DNase treatments significantly affected | Neither pLK nor DNase treatments significantly affected | pLK, unlike DNase, significantly improved | no antimicrobial properties | nor it affected the morphology | no antimicrobial properties | nor it affected the morphology | –
